Reference: patent publication US9751851B2, “Molecules and compositions that inhibit gram negative bacteria and their uses” (THE TRUSTEES OF PRINCETON UNIVERSITY, priority 2013, dated 2017)

test system: wild-type P. aeruginosa PA14; assay: microbe, parasite or virus in culture; assay type: cell-based; conditions: Pseudomonas aeruginosa, PA14, 17 h, read-out: Efficacy (%), Table 1; reduction of pyocyanin vs WT P. aeruginosa PA14: 0% = WT level, 100% = background medium, negative = agonist
Procedure: Methods. The oxidized form of pyocyanin imparts a green color to P. aeruginosa cultures, making the production of pyocyanin convenient to monitor by UV/Vis absorbance. Overnight P. aeruginosa cultures were subcultured into 5 mL fresh medium at 1:1000 dilution. Synthetic compounds were assayed at 100 μM for end point assays and at concentrations ranging from 200 nM to 200 μM for titrations following 17 hr of aerobic growth with shaking at 37° C. Cells were separated from culture fluids via centrifugation at 13,000 rpm for 15 min. Culture fluids were passed through 0.22 μm syringe driven filters (Millipore). Cell-free culture fluids were analyzed for pyocyanin using wavelength scans on a Beckman Coulter DU-800 spectrophotometer from 200 nm to 800 nm 695 nm was chosen for graphical representation. Titration data were fit with a variable-slope sigmoidal dose-response curve using GraphPad Prism to determine the IC50 values.
The compounds of the first library were assayed in wild-type (WT) P. aeruginosa PA14. Pyocyanin was used as a read-out for quorum sensing activity based on its absorbance at 695 nm. The efficacy of the compounds at reducing pyocyanin levels was calculated with respect to WT levels of pyocyanin, where WT levels of pyocyanin would lead to a 0% efficacy, and an absorbance equal to the background medium would lead to a 100% efficacy. Agonists that increase pyocyanin production have negative efficacy values.

In order of rising inhibition at 100 µM:
1. CCCCCCCCCCCC(=O)Nc1cnccn1 [S10, C12-2-aminopyrazine]  -38 ± 3%
2. CCCCCCCCCC(=O)CC(=O)Nc1ncccn1 [S5, 3OC12-2-aminopyrimidine]  -0.51 ± 4%
3. CCCCCCCCCC(=O)CC(=O)Nc1cccnc1 [S2, 3OC12-3-aminopyridine]  10 ± 9%
4. CCCCCCCCCC(=O)CC(=O)Nc1cnccn1 [S4, 3OC12-2-aminopyrazine]  21 ± 13%
5. CCCCCCCCCCCC(=O)Nc1ncccn1 [S11, C12-2-aminopyrimidine]  23 ± 3%
6. CCCCCCCCCCCC(=O)Nc1ccncc1 [S8, C12-4-aminopyridine]  28 ± 11%
7. CCCCCCCCCCCC(=O)Nc1cccnc1 [S7, C12-3-aminopyridine]  34 ± 3%
8. CCCCCCCCCC(=O)CC(=O)Nc1ccccn1 [S1, 3OC12-2-aminopyridine]  44 ± 13%
9. CCCCCCCCCCCC(=O)Nc1ccccn1 [S6, C12-2-aminopyridine]  55 ± 3%
10. CCCCCCCCCCCC(=O)Nc1ccncn1 [S9, C12-4-aminopyrimidine]  55 ± 8%
11. CCCCCCCCCC(=O)CC(=O)Nc1ccncn1 [S3, 3OC12-4-aminopyrimidine]  64 ± 0.8%

same assay, conditions: Pseudomonas aeruginosa, PA14, 17 h, read-out: Efficacy (%), Table 2; reduction of pyocyanin vs WT P. aeruginosa PA14: 0% = WT level, 100% = background medium, negative = agonist

In order of rising inhibition at 100 µM:
1. CCCCCCCCCCCC(=O)N1CCN(c2ccncc2)CC1 [S24, C12-4-(piperazine)pyridine]  -42 ± 2%
2. CCCCCCCCCCCC(=O)Nc1cc(C)nc2ccccc12 [S13, C12-4-amino-2-methylquinoline]  -24 ± 2%
3. CCCCCCCCCCCC(=O)Nc1ccnc(C)c1 [S12, C12-4-amino-2-methylpyridine]  -19 ± 3%
4. CCCCCCCCCCCC(=O)Nc1ccncc1C(F)(F)F [S14, C12-4-amino-3-trifluoromethylpyridine]  -17 ± 2%
5. CCCCCCCCCCCC(=O)OCc1ccncc1 [S23, C12-4-(hydroxymethyl)pyridine]  -15 ± 4%
6. CCCCCCCCCCCC(=O)Nc1c(F)c(F)nc(F)c1F [S19, C12-4-amino-2,3,5,6-tetrafluoropyridine]  -12 ± 3%
7. CCCCCCCCCCCC(=O)Nc1ccc2[nH]ccc2c1 [S25, C12-5-aminoindole]  -11 ± 3%
8. CCCCCCCCCCCCNC(=O)c1cc2ccccc2n1C [S32, C12-2-amido-1-methylindole]  -9.2 ± 4%
9. CCCCCCCCCC(=O)CC(=O)Nc1ccnc(F)c1 [S18, 3OC12-4-amino-2-fluoropyridine]  -8.5 ± 3%
10. CCCCCCCCCCCC(=O)Nc1ccnc(OC)c1 [S15, C12-4-amino-2-methoxypyridine]  -5.1 ± 1%
11. CCCCCCCCCCCC(=O)Nc1ccc2c(c1)c1ccccc1n2CC [S30, C12-3-amino-1-ethylcarbazole]  -1 ± 3%
12. CCCCCCCCCCCCNC(=O)Cc1c[nH]c2ccccc12 [S34, C12-3-(methylamido)indole]  0.6 ± 4%
13. CCCCCCOC(=O)C1COc2ccccc21 (stereo not shown) [S28, C6-dihydrobenzofuran ester]  1.5 ± 8%
14. CCCCCCCCCCCCNC(=O)c1c[nH]c2ccccc12 [S33, C12-3-amidoindole]  4.4 ± 3%
15. CCCCCCCCCCCC(=O)Nc1ccc2oc3c(c2c1)CCCC3 [S35, C12-2-amino-tetrahydrodibenzofuran]  6.1 ± 4%
16. CCCCCCCCCCCC(=O)NCc1ccncc1 [S22, C12-4-(aminomethyl)pyridine]  7.7 ± 5%
17. CCCCCCCCCC(=O)CC(=O)Nc1ccc2c(c1)c1ccccc1n2CC [S31, 3OC12-3-amino-1-ethylcarbazole]  9.3 ± 4%
18. CCCCCCCCCCCC(=O)O/N=C1\COc2ccccc21 [S29, C12-dihydrobenzofuran acylhydroxylamine]  12 ± 3%
19. CCCCCCCCCCCCNC(=O)c1ccncc1 [S21, C12-isonicotinic amide]  13 ± 3%
20. CCCCCCCCCC(=O)CC(=O)Nc1ccnc(OC)c1 [S16, 3OC12-4-amino-2-methoxypyridine]  24 ± 1%
21. CCCCCCCCCCCC(=O)Nc1ccnc(C(F)(F)F)c1 [S20, C12-4-amino-2-trifluoromethylpyridine]  27 ± 3%
22. CCCCCCCCCCCC(=O)Nc1ccnc(Br)c1 [S17, C12-4-amino-2-bromopyridine]  34 ± 5%

same assay, conditions: Pseudomonas aeruginosa, PA14, 17 h, read-out: Efficacy (%), Table 3; reduction of pyocyanin vs WT P. aeruginosa PA14: 0% = WT level, 100% = background medium

In order of rising inhibition at 100 µM:
1. COc1cc(NC(=O)COc2cccc(Br)c2)nc(OC)n1 [S54, 4-amino-2,6-dimethoxypyrimidine-C6-3-bromophenoxyhybrid]  15 ± 7%
2. COc1nccc(NC(=O)COc2cccc(Br)c2)n1 [S53, 4-amino-2-methoxypyrimidine-C6-3-bromophenoxyhybrid]  16 ± 5%
3. O=C(COc1cccc(Br)c1)Nc1ccncn1 [S51, 4-aminopyrimidine-C6-3-bromophenoxyhybrid]  27 ± 7%
4. O=C(COc1cccc(Br)c1)Nc1ccnc(F)c1 [S41, 4-amino-2-fluoropyridine-C6-3-bromophenoxyhybrid]  31 ± 6%
5. COc1cc(NC(=O)CC(=O)COc2cccc(Br)c2)ccn1 [S46, 4-amino-2-methoxypyridine-3OC6-3-bromophenoxyhybrid]  40%
6. COc1cc(NC(=O)COc2cccc(Br)c2)ncn1 [S52, 4-amino-6-methoxypyrimidine-C6-3-bromophenoxyhybrid]  41%
7. O=C(COc1cccc(Br)c1)Nc1cccc(C(F)(F)F)c1 [S59, 1-amino-3-trifluoromethyl-C6-3-bromophenoxyhybrid]  62%
8. O=C(COc1cccc(Br)c1)Nc1ccnc(Cl)c1 [S55, 4-amino-2-chloropyridine-C6-3-bromophenoxyhybrid]  89%

same assay, conditions: Table 3; reduction of pyocyanin vs WT P. aeruginosa PA14: 0% = WT level, 100% = background medium

In order of rising “Efficacy (%)” value:
1. O=C(COc1cccc(Br)c1)Nc1ccnc(F)c1 [S40, 4-amino-2-fluoropyridine-C4-3-bromophenoxyhybrid]  32 ± 4%
2. COc1cc(NC(=O)CC(=O)COc2cccc(Br)c2)ccn1 [S46, 4-amino-2-methoxypyridine-3OC6-3-bromophenoxyhybrid]  40 ± 6%
3. COc1cc(NC(=O)COc2cccc(Br)c2)ncn1 [S52, 4-amino-6-methoxypyrimidine-C6-3-bromophenoxyhybrid]  41 ± 9%
4. O=C(COc1cccc(Br)c1)Nc1cccc(C(F)(F)F)c1 [S59, 1-amino-3-trifluoromethyl-C6-3-bromophenoxyhybrid]  62 ± 6%
5. O=C(COc1cccc(Br)c1)Nc1ccnc(Cl)c1 [S55, 4-amino-2-chloropyridine-C6-3-bromophenoxyhybrid]  89 ± 5%

same assay, conditions: Table 3; reduction of pyocyanin vs WT P. aeruginosa PA14: 0% = WT level, 100% = background medium; listed as Table 3 entry 6

For `COc1cc(NC(=O)COc2cccc(Br)c2)ccn1` [S44, 4-amino-2-methoxypyridine-C5-3-bromophenoxyhybrid], the “Efficacy (%)” value was 81%.

same assay, conditions: Table 3; reduction of pyocyanin vs WT P. aeruginosa PA14: 0% = WT level, 100% = background medium; listed as Table 3 entry 10

For `COc1cc(NC(=O)COc2cccc(Br)c2)ccn1` [S50, 4-amino-2-methoxypyridine-C8-3-bromophenoxyhybrid], the “Efficacy (%)” value was 60%.

same assay, conditions: Table 3; reduction of pyocyanin vs WT P. aeruginosa PA14: 0% = WT level, 100% = background medium; listed as Table 3 entry 17

With `O=C(COc1cccc(Br)c1)Nc1ccnc(C(F)(F)F)c1` [S57, 4-amino-2-trifluoromethylpyridine-C5-3-bromophenoxyhybrid] the “Efficacy (%)” value was 95%.

same assay, conditions: Table 3; reduction of pyocyanin vs WT P. aeruginosa PA14: 0% = WT level, 100% = background medium; listed as drawing 59

For `O=C(COc1cccc(Br)c1)Nc1ccncc1` [S37, 4-aminopyridine-C4-3-bromophenoxyhybrid], the “Efficacy (%)” value was 21 ± 5%.

same assay, conditions: Table 3; reduction of pyocyanin vs WT P. aeruginosa PA14: 0% = WT level, 100% = background medium; listed as drawing 60

`O=C(COc1cccc(Br)c1)Nc1ccncc1` [S39, 4-aminopyridine-C6-3-bromophenoxyhybrid] was tested, and the “Efficacy (%)” value was 53 ± 1%.

same assay, conditions: Table 3; reduction of pyocyanin vs WT P. aeruginosa PA14: 0% = WT level, 100% = background medium; listed as drawing 63

`COc1cc(NC(=O)COc2cccc(Br)c2)ccn1` [S42, 4-amino-2-methoxypyridine-C4-3-bromophenoxyhybrid] was tested, and the “Efficacy (%)” value was 20 ± 1%.

same assay, conditions: Table 3; reduction of pyocyanin vs WT P. aeruginosa PA14: 0% = WT level, 100% = background medium; listed as drawing 64

In the case of `COc1cc(NC(=O)COc2cccc(Br)c2)ccn1` [S44, 4-amino-2-methoxypyridine-C5-3-bromophenoxyhybrid], the “Efficacy (%)” value is reported as 81 ± 6%.

same assay, conditions: Table 3; reduction of pyocyanin vs WT P. aeruginosa PA14: 0% = WT level, 100% = background medium; listed as drawing 68

For `COc1cc(NC(=O)COc2cccc(Br)c2)ccn1` [S50, 4-amino-2-methoxypyridine-C8-3-bromophenoxyhybrid], the “Efficacy (%)” value was 60 ± 2%.

same assay, conditions: Table 3; reduction of pyocyanin vs WT P. aeruginosa PA14: 0% = WT level, 100% = background medium; listed as drawing 74

`O=C(COc1cccc(Br)c1)Nc1ccnc(C(F)(F)F)c1` [S56, 4-amino-2-trifluoromethylpyridine-C4-3-bromophenoxyhybrid] was tested, and the “Efficacy (%)” value was 43 ± 8%.

same assay, conditions: Table 3; reduction of pyocyanin vs WT P. aeruginosa PA14: 0% = WT level, 100% = background medium; listed as drawing 75

`O=C(COc1cccc(Br)c1)Nc1ccnc(C(F)(F)F)c1` [S57, 4-amino-2-trifluoromethylpyridine-C5-3-bromophenoxyhybrid] was tested, and the “Efficacy (%)” value was 95 ± 5%.

same assay, conditions: Table 3; reduction of pyocyanin vs WT P. aeruginosa PA14: 0% = WT level, 100% = background medium; listed as drawing 77

`O=C(COc1cccc(Br)c1)Nc1ccnc(C(F)(F)F)c1` [S58, 4-amino-2-trifluoromethylpyridine-C7-3-bromophenoxyhybrid] was tested, and the “Efficacy (%)” value was 23 ± 7%.

same assay, conditions: WT P. aeruginosa PA14, 17 hr growth, titration; read-out: IC50 for inhibition of pyocyanin production

In order of falling IC50:
1. O=C(CCCOc1cccc(Br)c1)N[C@@H]1CCSC1=O [(R)-mBTL]  100 µM
2. O=C(CCCOc1cccc(Br)c1)N[C@H]1CCSC1=O [(S)-mBTL]  4 µM

same assay, conditions: wild-type P. aeruginosa PA14; end point assays at 100 μM

With `O=C(CCCCOc1cccc(Br)c1)NC1CCSC1=O` (stereo not shown) [5C-mBTL] the “inhibition of pyocyanin production (in words)” value was “most effective inhibitor of pyocyanin production”.
In the case of `O=C(CCc1ccc(Br)cc1)N[C@H]1CCOC1=O` [B7, reference compound], the “inhibition of pyocyanin production (in words)” value is reported as “limited or no inhibition”.
